In PubChem BioAssay (NCI):
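96-well plates; 48 h exposure; 5 concentrations. Endpoints by linear interpolation between flanking doses. Not reached: highest tested concentration assigned. At the TGI there is no net growth.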

What was measured:
Assay in all cases: inhibition of tumour cell growth, NCI panel, 48 h
SW-620 colon = system: SW-620 colon
HL-60(TB) leukemia = system: HL-60(TB) leukemia
SK-OV-3 ovarian = system: SK-OV-3 ovarian
SF-295 CNS = system: SF-295 CNS
HOP-62 NSCLC = system: HOP-62 NSCLC
M14 melanoma = system: M14 melanoma
HCT-116 colon = system: HCT-116 colon
KM12 colon = system: KM12 colon
SNB-75 CNS = system: SNB-75 CNS
HT29 colon = system: HT29 colon
HCC-2998 colon = system: HCC-2998 colon
SN12C renal = system: SN12C renal
RPMI-8226 leukemia = system: RPMI-8226 leukemia
NCI-H522 lung = system: NCI-H522 lung
U251 CNS = system: U251 CNS
OVCAR-5 ovarian = system: OVCAR-5 ovarian
OVCAR-3 ovarian = system: OVCAR-3 ovarian
DLD-1 colon = system: DLD-1 colon
MALME-3M melanoma = system: MALME-3M melanoma
KM20L2 colon = system: KM20L2 colon
SNB-78 CNS = system: SNB-78 CNS
LOX IMVI melanoma = system: LOX IMVI melanoma
HOP-92 NSCLC = system: HOP-92 NSCLC
SK-MEL-5 melanoma = system: SK-MEL-5 melanoma
XF 498 CNS = system: XF 498 CNS
A498 renal = system: A498 renal
ACHN renal = system: ACHN renal
SNB-19 CNS = system: SNB-19 CNS
NCI-H460 lung = system: NCI-H460 lung
M19-MEL melanoma = system: M19-MEL melanoma
SF-268 CNS = system: SF-268 CNS
TK-10 renal = system: TK-10 renal
DMS 273 small cell lung = system: DMS 273 small cell lung
SK-MEL-2 melanoma = system: SK-MEL-2 melanoma
OVCAR-8 ovarian = system: OVCAR-8 ovarian
SR leukemia = system: SR leukemia
K-562 leukemia = system: K-562 leukemia
SF-539 CNS = system: SF-539 CNS
IGROV1 ovarian = system: IGROV1 ovarian
HCT-15 colon = system: HCT-15 colon
NCI-H23 lung = system: NCI-H23 lung
MOLT-4 leukemia = system: MOLT-4 leukemia
LXFL 529 NSCLC = system: LXFL 529 NSCLC
OVCAR-4 ovarian = system: OVCAR-4 ovarian
786-0 renal = system: 786-0 renal
SK-MEL-28 melanoma = system: SK-MEL-28 melanoma
EKVX NSCLC = system: EKVX NSCLC
DMS 114 small cell lung = system: DMS 114 small cell lung
CAKI-1 renal = system: CAKI-1 renal
NCI-H226 lung = system: NCI-H226 lung
CCRF-CEM leukemia = system: CCRF-CEM leukemia
HOP-18 NSCLC = system: HOP-18 NSCLC
A549 NSCLC = system: A549 NSCLC
COLO 205 colon = system: COLO 205 colon
UACC-257 melanoma = system: UACC-257 melanoma
UO-31 renal = system: UO-31 renal
UACC-62 melanoma = system: UACC-62 melanoma
RXF 393 renal = system: RXF 393 renal

## CC1(C)O[C@@H](CC/C=C/CO)[C@H](CC/C=C/CO)O1
SW-620 colon
  TGI: > 100 µM
HL-60(TB) leukemia
  TGI: > 100 µM
SK-OV-3 ovarian
  TGI: > 100 µM
SF-295 CNS
  TGI: > 100 µM
HOP-62 NSCLC
  TGI: > 100 µM
M14 melanoma
  TGI: > 100 µM
HCT-116 colon
  TGI: > 100 µM
KM12 colon
  TGI: > 100 µM
SNB-75 CNS
  TGI: > 100 µM
HT29 colon
  TGI: > 100 µM
HCC-2998 colon
  TGI: > 100 µM
SN12C renal
  TGI: > 100 µM
RPMI-8226 leukemia
  TGI: > 100 µM
NCI-H522 lung
  TGI: > 100 µM
U251 CNS
  TGI: > 100 µM
OVCAR-5 ovarian
  TGI: > 100 µM
OVCAR-3 ovarian
  TGI: > 100 µM
DLD-1 colon
  TGI: > 100 µM
MALME-3M melanoma
  TGI: > 100 µM
KM20L2 colon
  TGI: > 100 µM
SNB-78 CNS
  TGI: > 100 µM
LOX IMVI melanoma
  TGI: > 100 µM
HOP-92 NSCLC
  TGI: > 100 µM
SK-MEL-5 melanoma
  TGI: > 100 µM
XF 498 CNS
  TGI: > 100 µM
A498 renal
  TGI: > 100 µM
ACHN renal
  TGI: > 100 µM
SNB-19 CNS
  TGI: > 100 µM
NCI-H460 lung
  TGI: > 100 µM
M19-MEL melanoma
  TGI: > 100 µM
SF-268 CNS
  TGI: > 100 µM
TK-10 renal
  TGI: > 100 µM
DMS 273 small cell lung
  TGI: > 100 µM
SK-MEL-2 melanoma
  TGI: > 100 µM
OVCAR-8 ovarian
  TGI: > 100 µM
SR leukemia
  TGI: > 100 µM
K-562 leukemia
  TGI: > 100 µM
SF-539 CNS
  TGI: > 100 µM
IGROV1 ovarian
  TGI: > 100 µM
HCT-15 colon
  TGI: > 100 µM
NCI-H23 lung
  TGI: > 100 µM
MOLT-4 leukemia
  TGI: > 100 µM
LXFL 529 NSCLC
  TGI: > 100 µM
OVCAR-4 ovarian
  TGI: > 100 µM
786-0 renal
  TGI: > 100 µM
SK-MEL-28 melanoma
  TGI: > 100 µM
EKVX NSCLC
  TGI: > 100 µM
DMS 114 small cell lung
  TGI: > 100 µM
CAKI-1 renal
  TGI: > 100 µM
NCI-H226 lung
  TGI: > 100 µM
CCRF-CEM leukemia
  TGI: > 100 µM
HOP-18 NSCLC
  TGI: > 100 µM
A549 NSCLC
  TGI: > 100 µM
COLO 205 colon
  TGI: > 100 µM
UACC-257 melanoma
  TGI: > 100 µM

## O=C1C(Cl)C(c2cc(Br)ccc2O)N1n1cnc2ccccc2c1=O (stereo not drawn)
SW-620 colon
  TGI: > 100 µM
HL-60(TB) leukemia
  TGI: 16.4 µM
SK-OV-3 ovarian
  TGI: > 100 µM
SF-295 CNS
  TGI: > 100 µM
HOP-62 NSCLC
  TGI: > 100 µM
M14 melanoma
  TGI: 27.6 µM
HCT-116 colon
  TGI: 33.3 µM
KM12 colon
  TGI: > 100 µM
SNB-75 CNS
  TGI: 71.4 µM
HT29 colon
  TGI: > 100 µM
HCC-2998 colon
  TGI: 65.9 µM
SN12C renal
  TGI: > 100 µM
RPMI-8226 leukemia
  TGI: 43.7 µM
NCI-H522 lung
  TGI: > 51.5 µM
U251 CNS
  TGI: > 100 µM
OVCAR-5 ovarian
  TGI: > 100 µM
OVCAR-3 ovarian
  TGI: > 82.1 µM
UO-31 renal
  TGI: > 56.3 µM
DLD-1 colon
  TGI: > 100 µM
MALME-3M melanoma
  TGI: 70.1 µM
KM20L2 colon
  TGI: > 100 µM
SNB-78 CNS
  TGI: > 93.9 µM
LOX IMVI melanoma
  TGI: > 100 µM
HOP-92 NSCLC
  TGI: 71.1 µM
SK-MEL-5 melanoma
  TGI: > 86.8 µM
XF 498 CNS
  TGI: > 100 µM
A498 renal
  TGI: > 100 µM
ACHN renal
  TGI: > 95.2 µM
SNB-19 CNS
  TGI: > 62.9 µM
NCI-H460 lung
  TGI: 60.5 µM
M19-MEL melanoma
  TGI: 35.1 µM
SF-268 CNS
  TGI: > 55 µM
TK-10 renal
  TGI: > 100 µM
UACC-62 melanoma
  TGI: > 68 µM
DMS 273 small cell lung
  TGI: > 73.2 µM
SK-MEL-2 melanoma
  TGI: > 100 µM
OVCAR-8 ovarian
  TGI: > 100 µM
SR leukemia
  TGI: > 36.9 µM
K-562 leukemia
  TGI: > 47.3 µM
SF-539 CNS
  TGI: > 100 µM
IGROV1 ovarian
  TGI: > 92.7 µM
HCT-15 colon
  TGI: > 100 µM
NCI-H23 lung
  TGI: > 71 µM
MOLT-4 leukemia
  TGI: 29 µM
LXFL 529 NSCLC
  TGI: > 100 µM
OVCAR-4 ovarian
  TGI: > 82.7 µM
RXF 393 renal
  TGI: > 100 µM
786-0 renal
  TGI: > 100 µM
SK-MEL-28 melanoma
  TGI: > 78.2 µM
EKVX NSCLC
  TGI: 27.8 µM
DMS 114 small cell lung
  TGI: 28.2 µM
CAKI-1 renal
  TGI: > 94.3 µM
NCI-H226 lung
  TGI: 39.1 µM
CCRF-CEM leukemia
  TGI: > 100 µM
HOP-18 NSCLC
  TGI: 45.5 µM
A549 NSCLC
  TGI: > 100 µM
COLO 205 colon
  TGI: > 100 µM
UACC-257 melanoma
  TGI: 49.1 µM
